The assay deals with T1, prostanoid DP receptor (prostaglandin D receptor) (Homo sapiens, UniProt Q13258).
T1 construct: expressed in transfected cells; host or cells: HEK293(EBNA) cells; membranes, 160,000 x g fraction
T1 sequence (Q13258 1-359): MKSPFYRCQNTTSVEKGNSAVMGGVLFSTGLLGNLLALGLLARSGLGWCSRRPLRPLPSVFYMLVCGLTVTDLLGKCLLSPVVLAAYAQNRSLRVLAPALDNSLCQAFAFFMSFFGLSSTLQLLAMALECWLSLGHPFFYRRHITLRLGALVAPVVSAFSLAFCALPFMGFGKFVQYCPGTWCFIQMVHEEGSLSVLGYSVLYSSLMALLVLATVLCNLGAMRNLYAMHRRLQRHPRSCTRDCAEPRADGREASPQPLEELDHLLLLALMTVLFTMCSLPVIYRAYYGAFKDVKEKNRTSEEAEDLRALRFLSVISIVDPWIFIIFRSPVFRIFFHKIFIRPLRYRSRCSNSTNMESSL
Description: Radioligand binding assay using membranes from cells that express recombinant prostanoid DP receptor. To be noted: for Ki: membranes of HEK293(EBNA) cells expressing DP, 0.7 nM [3H]PGD2, 60 min at room temperature, n = 5, read-out: Affinity (Ki) for the prostaglandin D receptor; for affinity for the prostaglandin D2 receptor, in words: comparison of the 1R isomers with the other two diastereomers. Here is the method:
Radioligand binding assays using membranes from cells that express recombinant prostanoid DP receptor (DP).
Radioligand binding assays are conducted essentially as previously described (Abramovitz et al., Biochem. Biophys. Acta 1483-2, 285-293, 2000). HEK293(EBNA) cells expressing DP are grown in supplemented DMEM complete medium at 37° C. in a humidified atmosphere of 6% CO2 in air, and then harvested. Cells are disrupted by nitrogen cavitation at 800 psi for 30 min. on ice in the presence of protease inhibitors (2 mM phenylmethylsulfonylfluoride, 10 μM E-64, 100 μM leupeptin and 0.05 mg/mL pepstatin). Membranes are prepared by differential centrifugation (1000×g for 10 min, then 160,000×g for 30 min, all at 4° C.). The 160,000×g pellets are resuspended in 10 mM HEPES/KOH (pH 7.4) containing 1 mM EDTA at approximately 5-10 mg/mL protein by Dounce homogenization (Dounce A; 10 strokes), frozen in liquid nitrogen and stored at −80° C. DP receptor binding assays are performed in a final incubation volume of 0.2 mL in 10 mM HEPES/KOH (pH 7.4), containing 1 mM EDTA, 10 mM MnCl2, 0.7 nM [^3H]PGD2 (115-200 Ci/mmol). The reaction was initiated by addition of 30-60 μg membrane protein from the 160,000×g fraction. Test compounds are added in dimethylsulfoxide (Me2SO) at 1% (v/v) in all incubations. Non-specific binding was determined in the presence of 1-10 μM of non-radioactive PGD2. Incubations are conducted for 60 min. at room temperature. Incubations are terminated by rapid filtration at 4° C. Radioactivity bound to the individual filters is determined by scintillation counting. Maximum specific binding is defined as the total binding minus the non-specific binding. Specific binding is determined at each concentration of test compound and is expressed as a percentage of the maximum specific binding. Sigmoidal equilibrium competition curves were constructed by expressing percentage maximum specific binding as a function of ligand concentration and analyzed by a validated custom designed software employing a simplex driven non-linear least-squares curve fitting routine based on a four parameter equation to determine the inflection point concentration (InPt). The corresponding Kivalues were derived from the equation Ki=InPt/1+([radioligand]/KD).

SMILES strings stand for the structures.

Consider `C[S+]([O-])c1cccc2c3c(n(Cc4ccc(Cl)cc4)c12)C(CC(=O)O)CCC3` (single isomer, unassigned) [Enantiomer of Ia, reference compound], for which the inhibition constant Ki (commonly the equilibrium dissociation constant of an inhibitor or competing ligand from its target) was found to be 119 ± 39 nM.

On to `C[S+]([O-])c1cccc2c3c(n(Cc4ccc(Cl)cc4)c12)C(CC(=O)O)CCC3` (single isomer, unassigned) [Enantiomer of Ib, reference compound], for which the inhibitory constant (Ki) was determined as 72 ± 4 nM.

As for `C[S@+]([O-])c1cccc2c3c(n(Cc4ccc(Cl)cc4)c12)[C@@H](CC(=O)O)CCC3` [Compound Ia, 2-[(1R)-9-(4-chlorobenzyl)-8-((S)-methylsulfinyl)-2,3,4,9-tetrahydro-1H-carbazol-1-yl]acetic acid], the “affinity for the prostaglandin D2 receptor, in words” value was “much higher affinity” and the inhibition constant Ki was 1.7 ± 0.3 nM.

On to `C[S@@+]([O-])c1cccc2c3c(n(Cc4ccc(Cl)cc4)c12)[C@@H](CC(=O)O)CCC3` [Compound Ib, 2-[(1R)-9-(4-chlorobenzyl)-8-((R)-methylsulfinyl)-2,3,4,9-tetrahydro-1H-carbazol-1-yl]acetic acid], for which the “affinity for the prostaglandin D2 receptor, in words” value is reported as “much higher affinity” and the Ki amounted to 2.1 ± 0.1 nM.
